Measured values from patent publication US10620222B2, “Electrified compositions for determining the risk of developing adolescent idiopathic scoliosis through the use of GI protein receptor” (CHU Sainte-Justine, priority 2008, dated 2020).
Values joined by “and” are separate entries in the source; they are usually repeats but may differ in a detail not shown here. Equal entries are not always repeated.

Test system: receptors coupled to Gi proteins expressed on osteoblasts
Experiment: Cellular Dielectric Spectroscopy (CDS, CELLKEY) response to Gi-coupled receptor ligands in osteoblasts from control and AIS subjects
Format: cell-based, human
Conditions: for dZiec value / Absolute dZiec, control value of max diff. (maximal control value) / Absolute dZiec, control value of min diff. (minimal control value) / Absolute dZiec, Group 1, max diff. (group value) / Absolute dZiec, Group 1, min diff. (group value) / Absolute dZiec, Group 2, max diff. (group value) / Absolute dZiec, Group 2, min diff. (group value) / Absolute dZiec, Group 3, max diff. (group value) / Absolute dZiec, Group 3, min diff. (group value): 300 μM ligand; for dZiec value: n1, n2 of Exper. 1-3; for Absolute dZiec, control value of max diff. (maximal control value) / Absolute dZiec, control value of min diff. (minimal control value): osteoblasts of control subjects; for Absolute dZiec, control value of max diff. (maximal control value) / Absolute dZiec, control value of min diff. (minimal control value) / Absolute dZiec, Group 1, max diff. (group value) / Absolute dZiec, Group 1, min diff. (group value) / Absolute dZiec, Group 2, max diff. (group value) / Absolute dZiec, Group 2, min diff. (group value) / Absolute dZiec, Group 3, max diff. (group value) / Absolute dZiec, Group 3, min diff. (group value): from FIGS. 11A-11F; for Absolute dZiec, Group 1, max diff. (group value) / Absolute dZiec, Group 1, min diff. (group value) / % of control signal, Group 1, max diff. / % of control signal, Group 1, min diff. / Absolute dZiec, Group 2, max diff. (group value) / Absolute dZiec, Group 2, min diff. (group value) / % of control signal, Group 2, max diff. / % of control signal, Group 2, min diff. / Absolute dZiec, Group 3, max diff. (group value) / Absolute dZiec, Group 3, min diff. (group value) / % of control signal, Group 3, max diff. / % of control signal, Group 3, min diff.: osteoblasts; for Absolute dZiec, Group 1, max diff. (group value): AIS Group 1 value of max diff.; for Absolute dZiec, Group 1, min diff. (group value): AIS Group 1 value of min diff.; for % of control signal, Group 1, max diff.: AIS Group 1 vs maximal control value; for % of control signal, Group 1, min diff.: AIS Group 1 vs minimal control value; for Absolute dZiec, Group 2, max diff. (group value): AIS Group 2 value of max diff.; for Absolute dZiec, Group 2, min diff. (group value): AIS Group 2 value of min diff.; for % of control signal, Group 2, max diff.: AIS Group 2 vs maximal control value; for % of control signal, Group 2, min diff.: AIS Group 2 vs minimal control value; for Absolute dZiec, Group 3, max diff. (group value): AIS Group 3 value of max diff.; for Absolute dZiec, Group 3, min diff. (group value): AIS Group 3 value of min diff.; for % of control signal, Group 3, max diff.: AIS Group 3 vs maximal control value; for % of control signal, Group 3, min diff.: AIS Group 3 vs minimal control value
Source text: Bone specimens were obtained intraoperatively from vertebras (varying from T3 to L4 according to the surgical procedure performed), while with trauma cases used as non-scoliotic controls bone specimens were obtained from other anatomical sites (tibia or femur, and in one case from an iliac crest biopsy). Osteoblasts and myoblasts isolated as previously described (Moreau A, Wang D S, Forget S et al. Melatonin Signaling Dysfunction in Adolescent Idiopathic Scoliosis. Spine 2004; 29:1772-81; Azeddine et al., 2007 Molecular determinants of melatonin signaling dysfunction in adolescent idiopathic scoliosis. Clin Orthop Relat Res. 2007, 462:45-52), were cultured at 37° C./5% CO2 in MEM supplemented with 10% fetal bovine serum (FBS) and 100 μg/mL streptomycin. Prior to the experiment, cells were seeded into the CELLKEY™ label-free cellular analysis system standard 96-well plates at a density of 5×10^4/well and grown for 24 h and incubated in standard conditions (37° C./5% CO2). In some plates, Pertussis toxin (100 ng/mL, Sigma, Oakville, ON, Canada) treatment was performed 16 h before the CDS assay. Following overnight incubation, plates were placed onto the CELLKEY™ label-free cellular analysis system and growth medium was exchanged to assay buffer (Hanks, Balanced Salt Solution containing 20 mM HEPES and 0.1% BSA) before starting the experiment. Cells were then allowed to equilibrate at room temperature for 30 min. Pre-addition measurements were made for 5 min to obtain a baseline reading. […] The quick update rate (2 s.) of the CELLKEY™ label-free cellular analysis system allows detection of these immediate changes in impedance. Impedance measurements were collected for 10 min to 15 min at 28° C. after ligand addition to monitor cellular responses to ligand interaction and to generate CELLKEY™ label-free cellular analysis system response profiles that are characteristic of the signaling mechanisms used.
The response induced by the various ligands to their receptors was measured by cellular dielectric spectroscopy (CDS) using the CELLKEY™ label-free cellular analysis technology. (MDS Sciex, San Francisco, Calif., USA). The CELLKEY™ label-free cellular analysis system integrates a proprietary impedance measurement system, custom 96-well microliter plate, onboard 96-well fluidics, and environment control and custom acquisition and analysis software in a full solution package (MDS Sciex) that is compatible with commercially available robotic platforms. Small voltage at 24 frequencies, from 1 KHz to 10 MHz, is applied to a monolayer of cells settled in a 96-well microplate containing electrodes at the bottom, and the resultant current is measured at an update rate of 2 s. […] Onboard fluid additions and exchanges are handled by 96-well head fluid delivery device with a range of 5-500 μL. In addition to the cell plate location, the CELLKEY™ label-free cellular analysis system includes two additional stations for 96- or 384-well compound plates. All aspects of assay set up, execution, and data acquisition and analysis are controlled by CELLKEY™ label-free cellular analysis software.
The minimal (min) and maximal (max) values represent the mean of three independent measurements performed in duplicate (six values in total) for a given patient/control subject. […] Duplicates (n1 and n2) of three independent experiments are presented.

[1] = osteoblasts of AIS#1020 (Group 3) relative to CTR#60
[2] = osteoblasts of AIS#1020 (Group 3)
[3] = osteoblasts of AIS#1198 (Group 3 in Table II) relative to CTR#69
[4] = osteoblasts of AIS#1198 (Group 3 in Table II)
[5] = osteoblasts of AIS#1468 (Group 3) relative to CTR#61
[6] = osteoblasts of AIS#1468 (Group 3)
[7] = osteoblasts of AIS#1474 (Group 1) relative to CTR#60
[8] = osteoblasts of AIS#1474 (Group 1)
[9] = osteoblasts of AIS#1488 (Group 1) relative to CTR#69
[10] = osteoblasts of AIS#1488 (Group 1)
[11] = osteoblasts of AIS#1513 (Group 3) relative to CTR#61
[12] = osteoblasts of AIS#1513 (Group 3)
[13] = osteoblasts of AIS#1549 (Group 1) relative to CTR#61
[14] = osteoblasts of AIS#1549 (Group 1)
[15] = osteoblasts of AIS#1550 (Group 2) relative to CTR#60
[16] = osteoblasts of AIS#1550 (Group 2)

Row | SMILES | % of control [1] | dZiec value [2] | % of control [3] | dZiec value [4] | % of control [5] | dZiec value [6] | % of control [7] | dZiec value [8] | % of control [9] | dZiec value [10] | % of control [11] | dZiec value [12] | % of control [13] | dZiec value [14] | % of control [15] | dZiec value [16] | dZiec value (osteoblasts of control CTR#60) | dZiec value (osteoblasts of control CTR#61) | dZiec value (osteoblasts of control CTR#69) | Absolute dZiec, control value of max diff. (maximal control value) | other results
1 | Brc1c(NC2=NCCN2)ccc2nccnc12 [UK14304, 5-bromo-N-(4,5-dihydro-1H-imidazol-2-yl)-6-quinoxalinamine] | 42.4% and 37.2% and 34.7% and 40.5% and 37.5% and 41.7% | 42.74 and 39.74 and 43.5 and 51.5 and 41.62 and 49.62 | 42.6% and 43.7% and 57.1% and 54.0% and 49.1% and 58.9% | 44.16 and 46.16 and 56.22 and 54.22 and 46.19 and 54.19 | 72.7% and 71.7% and 76.2% and 68.8% and 73.0% | 65.72 and 67.72 and 77.77 and 75.77 and 67.75 and 75.75 | 20.4% and 19.3% and 18.6% and 19.1% and 17.5% and 16.4% | 20.6 and 23.35 and 24.35 and 19.48 | 25.3% and 24.2% and 26.3% and 18.8% and 28.2% and 28.5% | 26.24 and 25.55 and 25.92 and 18.92 and 26.55 | 64.7% and 64.0% and 70.1% and 63.2% and 65.8% and 67.8% | 58.45 and 60.45 and 71.58 and 69.58 and 61.02 and 69.02 | 30.0% and 30.8% and 33.7% and 33.1% and 35.3% and 36.1% | 27.08 and 29.08 and 34.45 and 36.45 and 32.76 and 36.76 | 53.2% and 42.7% and 45.3% and 35.2% and 41.6% and 45.5% | 53.62 and 45.62 and 56.75 and 44.75 and 46.19 and 54.19 | 100.78/— and 106.78/— and 125.27/— and 127.27/— and 111.02/— and 119.02/— | 90.39/— and 94.39/— and 102.1/— and 110.1/— and 92.75/— and 101.75/— | 103.67/— and 105.67/— and 98.38/— and 100.38/— and 94.02/— and 92.02/— | 115 | Absolute dZiec, control value of min diff. (minimal control value): 98; Absolute dZiec, Group 1, max diff. (group value): 21; Absolute dZiec, Group 1, min diff. (group value): 32; % of control signal, Group 1, max diff.: 18%; % of control signal, Group 1, min diff.: 33%; Absolute dZiec, Group 2, max diff. (group value): 45; Absolute dZiec, Group 2, min diff. (group value): 50; % of control signal, Group 2, max diff.: 39%; % of control signal, Group 2, min diff.: 51%; Absolute dZiec, Group 3, max diff. (group value): 60; Absolute dZiec, Group 3, min diff. (group value): 71; % of control signal, Group 3, max diff.: 52%; % of control signal, Group 3, min diff.: 72%
2 | O=C(NC1CCCCC1)c1cn(CCN2CCOCC2)c2cc(Cl)ccc2c1=O [CB65, N-Cyclohexyl-7-chloro-1-[2-(4-morpholinyl)ethyl]quinolin-4(1H)-one-3-carboxamide] | 43.1% and 47.5% and 45.6% and 43.5% and 46.2% | 61.81 and 73.81 and 74.95 and 82.95 and 69.38 and 77.38 | 51.5% and 55.2% and 57.8% and 59.7% and 55.1% and 57.3% | 72.90 and 84.90 and 94.57 and 102.57 and 84.73 and 92.73 | 57.0% and 60.3% and 64.0% and 65.6% and 61.0% and 62.9% | 82.16 and 94.16 and 107.91 and 115.91 and 96.04 and 104.04 | 25.3% and 24.7% and 26.9% and 24.6% and 23.5% and 27.2% | 36.30 and 38.30 and 46.79 and 44.79 and 37.55 and 45.55 | 29.2% and 28.2% and 33.2% and 30.5% and 28.5% and 32.1% | 41.30 and 43.30 and 54.43 and 52.43 and 43.87 and 51.87 | 74.8% and 76.7% and 76.6% and 77.6% and 75.9% and 77.1% | 107.73 and 119.73 and 129.10 and 137.10 and 119.41 and 127.41 | 25.3% and 18.2% and 19.1% and 22.8% and 19.3% and 23.2% | 36.48 and 28.48 and 32.23 and 40.23 and 30.36 and 38.36 | 38.5% and 36.8% and 38.3% and 35.5% and 35.6% and 38.7% | 55.13 and 57.13 and 66.49 and 64.49 and 56.81 and 64.81 | 143.28/— and 155.28/— and 173.77/— and 181.77/— and 159.53/— and 167.53/— | 144.08/— and 156.08/— and 168.59/— and 176.59/— and 157.34/— and 165.34/— | 141.68/— and 153.68/— and 163.73/— and 171.73/— and 153.70/— and 161.70/— | 169 | % of control (osteoblasts of AIS#1385 (Group 2) relative to CTR#69): 46.7% and 50.9% and 51.8% and 54.1% and 49.8% and 52.3%; dZiec value (osteoblasts of AIS#1385 (Group 2)): 66.15 and 78.15 and 84.86 and 92.86 and 76.50 and 84.50; Absolute dZiec, control value of min diff. (minimal control value): 138; Absolute dZiec, Group 1, max diff. (group value): 34; Absolute dZiec, Group 1, min diff. (group value): 47; % of control signal, Group 1, max diff.: 20%; % of control signal, Group 1, min diff.: 34%; Absolute dZiec, Group 2, max diff. (group value): 60; Absolute dZiec, Group 2, min diff. (group value): 88; % of control signal, Group 2, max diff.: 36%; % of control signal, Group 2, min diff.: 64%; Absolute dZiec, Group 3, max diff. (group value): 100; Absolute dZiec, Group 3, min diff. (group value): 123; % of control signal, Group 3, max diff.: 55%; % of control signal, Group 3, min diff.: 89%
